From US10040781B2, “Tank-binding kinase inhibitor compounds” (Gilead Sciences, Inc., priority 2014, dated 2018) come the findings set out here.

For one test, the target named is IKKε (Homo sapiens (Human), UniProt Q14164). The test can be described thus: IKKε TR-FRET enzymatic assay. In kind it is biochemical. Particulars: read-out: IKKe IC50.
The target of a further test is hJAK2 (Homo sapiens (Human), UniProt O60674). The test can be described thus: hJAK2 LANCE TR-FRET enzymatic assay. In kind it is biochemical. Particulars: read-out: JAK2 IC50.
Another test has as its target TBK1 (Homo sapiens (Human), UniProt Q9UHD2). The test can be described thus: TBK1 TR-FRET enzymatic assay.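 Further: phosphorylation of a biotinylated Ser/Thr peptide by purified full-length recombinant TBK1, read by TR-FRET after 240 min at 25 °C, IC50 is the geometric mean of at least four runs.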

Structures are written as SMILES.

Sequence of TBK1 (Q9UHD2 whole entry): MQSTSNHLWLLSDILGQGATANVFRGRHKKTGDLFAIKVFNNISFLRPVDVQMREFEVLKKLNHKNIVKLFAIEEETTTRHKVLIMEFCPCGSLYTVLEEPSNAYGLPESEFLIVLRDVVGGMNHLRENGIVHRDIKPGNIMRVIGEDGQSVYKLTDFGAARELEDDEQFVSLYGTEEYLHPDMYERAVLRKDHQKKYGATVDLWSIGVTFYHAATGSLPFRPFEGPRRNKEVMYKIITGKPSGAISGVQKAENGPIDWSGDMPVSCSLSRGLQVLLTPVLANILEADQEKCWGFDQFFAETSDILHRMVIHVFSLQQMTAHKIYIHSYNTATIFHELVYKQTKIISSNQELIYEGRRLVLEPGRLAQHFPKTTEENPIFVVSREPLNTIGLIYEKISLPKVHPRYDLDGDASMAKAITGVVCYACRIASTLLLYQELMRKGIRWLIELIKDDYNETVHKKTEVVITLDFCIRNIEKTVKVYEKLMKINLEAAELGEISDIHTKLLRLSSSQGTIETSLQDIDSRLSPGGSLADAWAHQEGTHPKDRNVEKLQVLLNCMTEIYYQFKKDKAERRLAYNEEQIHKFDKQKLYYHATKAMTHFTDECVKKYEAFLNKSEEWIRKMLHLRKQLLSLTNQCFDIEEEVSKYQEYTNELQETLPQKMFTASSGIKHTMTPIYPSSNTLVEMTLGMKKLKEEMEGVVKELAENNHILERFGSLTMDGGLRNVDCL
Sequence of hJAK2 (O60674 whole entry): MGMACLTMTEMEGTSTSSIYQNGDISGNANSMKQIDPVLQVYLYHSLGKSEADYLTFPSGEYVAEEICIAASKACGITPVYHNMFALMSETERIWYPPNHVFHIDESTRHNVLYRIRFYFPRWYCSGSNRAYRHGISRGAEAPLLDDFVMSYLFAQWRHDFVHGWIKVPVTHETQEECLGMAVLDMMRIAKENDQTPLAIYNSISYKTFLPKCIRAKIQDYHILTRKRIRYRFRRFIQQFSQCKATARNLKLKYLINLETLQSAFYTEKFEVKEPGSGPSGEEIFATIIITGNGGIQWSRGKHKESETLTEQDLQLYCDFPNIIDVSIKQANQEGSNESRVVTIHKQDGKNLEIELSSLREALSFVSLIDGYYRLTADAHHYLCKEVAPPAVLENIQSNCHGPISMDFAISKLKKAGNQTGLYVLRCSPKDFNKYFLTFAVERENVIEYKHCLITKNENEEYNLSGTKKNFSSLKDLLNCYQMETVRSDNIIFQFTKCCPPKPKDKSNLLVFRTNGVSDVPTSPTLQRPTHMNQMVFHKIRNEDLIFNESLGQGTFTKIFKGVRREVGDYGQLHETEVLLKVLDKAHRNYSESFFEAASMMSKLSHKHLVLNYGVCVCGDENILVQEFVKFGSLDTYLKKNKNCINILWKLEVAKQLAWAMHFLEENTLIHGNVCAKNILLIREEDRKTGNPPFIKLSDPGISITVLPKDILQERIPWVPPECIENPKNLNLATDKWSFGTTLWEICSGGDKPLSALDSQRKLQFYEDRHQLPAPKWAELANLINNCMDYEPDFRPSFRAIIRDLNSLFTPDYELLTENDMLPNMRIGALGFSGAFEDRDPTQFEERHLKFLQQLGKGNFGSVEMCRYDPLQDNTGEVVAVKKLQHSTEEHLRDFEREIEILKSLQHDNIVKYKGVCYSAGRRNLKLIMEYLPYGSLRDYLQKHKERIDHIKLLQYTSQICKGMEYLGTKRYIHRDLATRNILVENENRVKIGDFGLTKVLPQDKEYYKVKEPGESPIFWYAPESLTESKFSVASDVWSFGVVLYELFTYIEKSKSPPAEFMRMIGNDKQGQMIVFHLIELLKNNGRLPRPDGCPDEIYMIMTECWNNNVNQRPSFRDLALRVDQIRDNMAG
Sequence of IKKε (Q14164 whole entry): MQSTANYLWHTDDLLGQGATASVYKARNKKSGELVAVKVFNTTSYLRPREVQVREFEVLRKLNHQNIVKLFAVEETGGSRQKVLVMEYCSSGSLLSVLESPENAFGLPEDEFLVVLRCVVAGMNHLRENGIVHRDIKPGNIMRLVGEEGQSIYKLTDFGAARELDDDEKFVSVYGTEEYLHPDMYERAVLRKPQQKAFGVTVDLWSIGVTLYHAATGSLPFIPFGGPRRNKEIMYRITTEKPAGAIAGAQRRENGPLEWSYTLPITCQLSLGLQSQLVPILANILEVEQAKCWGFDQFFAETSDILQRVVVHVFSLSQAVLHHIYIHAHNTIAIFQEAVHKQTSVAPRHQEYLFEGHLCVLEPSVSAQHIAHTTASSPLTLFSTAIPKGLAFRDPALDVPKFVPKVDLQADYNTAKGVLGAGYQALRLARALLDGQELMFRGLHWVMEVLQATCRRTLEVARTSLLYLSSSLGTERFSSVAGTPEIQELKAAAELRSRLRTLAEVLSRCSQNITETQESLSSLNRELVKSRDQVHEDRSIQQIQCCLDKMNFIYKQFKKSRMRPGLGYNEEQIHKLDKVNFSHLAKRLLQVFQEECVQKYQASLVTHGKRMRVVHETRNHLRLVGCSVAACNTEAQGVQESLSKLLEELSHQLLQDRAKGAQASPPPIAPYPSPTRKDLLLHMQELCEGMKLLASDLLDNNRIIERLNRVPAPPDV

Take `N#Cc1cc(-c2ncnc(Nc3ccc(C4CCN(C5COC5)CC4)cc3)n2)ccc1OC1CCN(C(=O)CO)CC1` [Example 56, 2-((1-(2-hydroxyacetyl)piperidin-4-yl)oxy)-5-(4-((4-(1-(oxetan-3-yl)piperidin-4-yl)phenyl)amino)-1,3,5-triazin-2-yl)benzonitrile]: the IC50 on IKKε is 0.003 µM; on hJAK2, above 1 µM; against TBK1, 0.002 µM.
On to `CS(=O)(=O)c1ccc(Nc2ncnc(-c3ccc(OC4CCN(C(=O)CO)CC4)c(C#N)c3)n2)cc1` [Example 57, 2-((1-(2-hydroxyacetyl)piperidin-4-yl)oxy)-5-(4-((4-(methylsulfonyl)phenyl)amino)-1,3,5-triazin-2-yl)benzonitrile], for which the values for the IC50 on IKKε, at hJAK2 and against TBK1 were 0.008 µM, above 1 µM and 0.005 µM, respectively.
The corresponding values for `N#Cc1cc(-c2ncnc(Nc3ccc(N4CCN(C5COC5)CC4)cc3)n2)ccc1OCC1CC1` [Example 58, 2-(cyclopropylmethoxy)-5-(4-((4-(4-(oxetan-3-yl)piperazin-1-yl)phenyl)amino)-1,3,5-triazin-2-yl)benzonitrile] are 0.004 µM, 0.455 µM and 0.002 µM.
Taken in the same sequence, the figures for `Cn1ccc(Nc2ncnc(-c3ccc(OC4CCOCC4)c(C#N)c3)n2)n1` [Example 59, 5-(4-((1-methyl-1H-pyrazol-3-yl)amino)-1,3,5-triazin-2-yl)-2-((tetrahydro-2H-pyran-4-yl)oxy)benzonitrile] were 0.083 µM, above 1 µM and 0.055 µM.
Taken in the same sequence, the figures for `N#Cc1cc(-c2ncnc(Nc3ccc(N4CCN(C5COC5)CC4)cc3)n2)ccc1OC1CCC(F)(F)CC1` [Example 60, 2-((4,4-difluorocyclohexyl)oxy)-5-(4-((4-(4-(oxetan-3-yl)piperazin-1-yl)phenyl)amino)-1,3,5-triazin-2-yl)benzonitrile] were 0.007 µM, 0.655 µM and 0.003 µM.
Turning to `CN1CCN(c2cccc(Nc3ncnc(-c4ccc(OC5CCOCC5)c(C#N)c4)n3)c2)CC1` [Example 62, 5-(4-((3-(4-methylpiperazin-1-yl)phenyl)amino)-1,3,5-triazin-2-yl)-2-((tetrahydro-2H-pyran-4-yl)oxy)benzonitrile], the values for the IC50 on IKKε, at hJAK2 and at TBK1 were 0.003 µM, above 1 µM and 0.005 µM, respectively.
For `N#Cc1cc(-c2ncnc(Nc3cccc(N4CCOCC4)c3)n2)ccc1OC1CCOCC1` [Example 63, 5-(4-((3-morpholinophenyl)amino)-1,3,5-triazin-2-yl)-2-((tetrahydro-2H-pyran-4-yl)oxy)benzonitrile], the IC50 is 0.008 µM on IKKε, 0.938 µM on hJAK2 and 0.004 µM against TBK1.
Taken in the same sequence, the figures for `N#Cc1cc(-c2ncnc(Nc3ccc(C4CCN(CC(F)F)CC4)cc3)n2)ccc1OC1CCOCC1` [Example 65, 5-(4-((4-(1-(2,2-difluoroethyl)piperidin-4-yl)phenyl)amino)-1,3,5-triazin-2-yl)-2-((tetrahydro-2H-pyran-4-yl)oxy)benzonitrile] were 0.011 µM, above 1 µM and 0.004 µM.
For `CS(=O)(=O)N1CCN(c2ccc(Nc3ncnc(-c4ccc(OC5CCOCC5)c(C#N)c4)n3)cc2)CC1` [Example 66, 5-(4-((4-(4-(methylsulfonyl)piperazin-1-yl)phenyl)amino)-1,3,5-triazin-2-yl)-2-((tetrahydro-2H-pyran-4-yl)oxy)benzonitrile], the IC50 at IKKε worked out at 0.005 µM; on hJAK2 it was 0.345 µM; at TBK1, 0.002 µM.
Taken in the same sequence, the figures for `N#Cc1cc(-c2ncnc(Nc3ccc(N4CCN(C5COC5)CC4)cc3)n2)ccc1OC1CCOCC1` [Example 67, 5-(4-((4-(4-(oxetan-3-yl)piperazin-1-yl)phenyl)amino)-1,3,5-triazin-2-yl)-2-((tetrahydro-2H-pyran-4-yl)oxy)benzonitrile] were 0.006 µM, 0.802 µM and 0.002 µM.
The corresponding values for `N#Cc1cc(-c2ncnc(Nc3ccc(C(=O)C(F)(F)F)cc3)n2)ccc1OC1CCOCC1` [Example 68, 2-((tetrahydro-2H-pyran-4-yl)oxy)-5-(4-((4-(2,2,2-trifluoroacetyl)phenyl)amino)-1,3,5-triazin-2-yl)benzonitrile] are 0.011 µM, 0.415 µM and 0.002 µM.
The corresponding values for `N#Cc1cc(-c2ncnc(Nc3cccc(N4CCN(C5COC5)CC4)c3)n2)ccc1OC1CCOCC1` [Example 69, 5-(4-((3-(4-(oxetan-3-yl)piperazin-1-yl)phenyl)amino)-1,3,5-triazin-2-yl)-2-((tetrahydro-2H-pyran-4-yl)oxy)benzonitrile] are 0.004 µM, above 1 µM and 0.006 µM.
For `N#Cc1cc(-c2ncnc(Nc3ccc(N4CCN(C5COC5)CC4)cc3)n2)ccc1OC1CCN(C(=O)C2(O)CC2)CC1` [Example 70, 2-((1-(1-hydroxycyclopropanecarbonyl)piperidin-4-yl)oxy)-5-(4-((4-(4-(oxetan-3-yl)piperazin-1-yl)phenyl)amino)-1,3,5-triazin-2-yl)benzonitrile], the IC50 on IKKε amounted to 0.07 µM; at hJAK2 it was 0.918 µM; on TBK1, 0.028 µM.
The corresponding values for `COc1cc(Nc2ncnc(-c3ccc(OC4CCOCC4)c(C#N)c3)n2)ccc1C(=O)N1CCN(C2COC2)CC1` [Example 71, 5-(4-((3-methoxy-4-(4-(oxetan-3-yl)piperazine-1-carbonyl)phenyl)amino)-1,3,5-triazin-2-yl)-2-((tetrahydro-2H-pyran-4-yl)oxy)benzonitrile] are 0.01 µM, above 1 µM and 0.002 µM.
With `COc1ccc(Nc2ncnc(-c3ccc(OC4CCOCC4)c(C#N)c3)n2)cc1` [Example 72, 5-(4-((4-methoxyphenyl)amino)-1,3,5-triazin-2-yl)-2-((tetrahydro-2H-pyran-4-yl)oxy)benzonitrile], the figures for the IC50 at IKKε, at hJAK2 and on TBK1 were 0.021 µM, above 1 µM and 0.005 µM, respectively.
Taken in the same sequence, the figures for `Cn1nccc1Nc1ncnc(-c2ccc(OC3CCOCC3)c(C#N)c2)n1` [Example 73, 5-(4-((1-methyl-1H-pyrazol-5-yl)amino)-1,3,5-triazin-2-yl)-2-((tetrahydro-2H-pyran-4-yl)oxy)benzonitrile] were 0.202 µM, above 1 µM and 0.09 µM.
The corresponding values for `N#Cc1cc(-c2ncnc(Nc3cc(F)c(N4CCN(C5COC5)CC4)c(F)c3)n2)ccc1OC1CCOCC1` [Example 74, 5-(4-((3,5-difluoro-4-(4-(oxetan-3-yl)piperazin-1-yl)phenyl)amino)-1,3,5-triazin-2-yl)-2-((tetrahydro-2H-pyran-4-yl)oxy)benzonitrile] are 0.012 µM, above 1 µM and 0.003 µM.
The corresponding values for `N#Cc1cc(-c2ncnc(Nc3ccc(C(=O)NC4COC4)cc3)n2)ccc1OC1CCOCC1` [Example 75, 4-((4-(3-cyano-4-((tetrahydro-2H-pyran-4-yl)oxy)phenyl)-1,3,5-triazin-2-yl)amino)-N-(oxetan-3-yl)benzamide] are 0.012 µM, 0.899 µM and 0.003 µM.
With `CN1CCC(c2ccc(Nc3ncnc(-c4ccc(OC5CCOCC5)c(C#N)c4)n3)cc2)CC1` [Example 76, 5-(4-((4-(1-methylpiperidin-4-yl)phenyl)amino)-1,3,5-triazin-2-yl)-2-((tetrahydro-2H-pyran-4-yl)oxy)benzonitrile], the IC50 at IKKε turned out to be 0.003 µM; at hJAK2 it was 0.575 µM; against TBK1 it was 0.001 µM.
For the compound `COc1ccc(Nc2ncnc(-c3ccc(OC4CCOCC4)c(C#N)c3)n2)cn1` [Example 77, 5-(4-((6-methoxypyridin-3-yl)amino)-1,3,5-triazin-2-yl)-2-((tetrahydro-2H-pyran-4-yl)oxy)benzonitrile], the IC50 on IKKε was 0.055 µM; on hJAK2 it was above 1 µM; against TBK1, 0.021 µM.
For the compound `COc1cccc(Nc2ncnc(-c3ccc(OC4CCOCC4)c(C#N)c3)n2)c1` [Example 78, 5-(4-((3-methoxyphenyl)amino)-1,3,5-triazin-2-yl)-2-((tetrahydro-2H-pyran-4-yl)oxy)benzonitrile], the figures for the IC50 on IKKε, on hJAK2 and at TBK1 were 0.017 µM, above 1 µM and 0.006 µM, respectively.
With `N#Cc1cc(-c2ncnc(Nc3ccccc3)n2)ccc1OC1CCOCC1` [Example 79, 5-(4-(phenylamino)-1,3,5-triazin-2-yl)-2-((tetrahydro-2H-pyran-4-yl)oxy)benzonitrile], the IC50 at IKKε was 0.019 µM; at hJAK2 it was above 1 µM; against TBK1, 0.008 µM.
`N#Cc1cc(-c2ncnc(Nc3ccc(N4CCOCC4)cc3)n2)ccc1O[C@@H]1CCNC1` [Example 80]: the 50% inhibitory concentration (IC50) was 0.037 µM at IKKε, 0.389 µM at hJAK2 and 0.019 µM against TBK1.
The corresponding values for `N#Cc1cc(-c2ncnc(Nc3cccc(N4CCOCC4)c3)n2)ccc1O[C@@H]1CCNC1` [Example 82, (R)-5-(4-((3-morpholinophenyl)amino)-1,3,5-triazin-2-yl)-2-(pyrrolidin-3-yloxy)benzonitrile] are 0.053 µM, 0.641 µM and 0.094 µM.
The corresponding values for `CC(C)NC(=O)c1ccc(Nc2ncnc(-c3ccc(O[C@@H]4CCN(C(=O)CO)C4)c(C#N)c3)n2)cc1` [Example 83, (R)-4-((4-(3-cyano-4-((1-(2-hydroxyacetyl)pyrrolidin-3-yl)oxy)phenyl)-1,3,5-triazin-2-yl)amino)-N-isopropylbenzamide] are 0.014 µM, 0.604 µM and 0.008 µM.
With `CC(C)NC(=O)c1ccc(Nc2ncnc(-c3ccc(O[C@@H]4CCNC4)c(C#N)c3)n2)cc1` [Example 84, (R)-4-((4-(3-cyano-4-(pyrrolidin-3-yloxy)phenyl)-1,3,5-triazin-2-yl)amino)-N-isopropylbenzamide], the values for the IC50 on IKKε, on hJAK2 and on TBK1 were 0.166 µM, 0.805 µM and 0.072 µM, respectively.
